Tests used:
[1] = system: NLRP3 (IL-1β release from THP-1 cells); test: IL-1β detection in IFN-γ differentiated THP-1 cells, LPS induction and ATP, 96 well format; assay type: cell-based; details: Homo sapiens, IFN-γ 25 ng/mL, LPS 50 ng/mL, ATP 5 mM, IL-1β ELISA, read-out: Activity (IC50 class)
Procedure: (§1) Compounds as provided herein were tested in the following assay. Cell culture medium employed contained RPMI 1640 medium (89%), FBS (10%), Pen/Strep (1%), and 2-mercaptoethanol (0.05 mM). Freezing medium was made up of 90% FBS and 10% DMSO. THP-1 cells were removed from the liquid nitrogen and placed into a 37° C. water bath to thaw, until signs of ice dissipated. The cells were then added to 9 mL of warm cell culture medium and centrifuged for 5 minutes at 1000 rpm. The supernatant was discarded, and the cells were resuspended in new cell culture medium. The THP-1 cells were then split and cultured in the cell culture medium, being passaged every 2-3 days (5×10^5 cells/mL passaged every two days, 3×10^5 cells/mL passaged every three days). Cell density was maintained between 5×10^5-1.5×10^6 viable cells/mL.
To freeze, cells were resuspended with fresh freezing medium, adjusting the cell density to between 3×10^6-10×10^6 cells/mL. The cell suspension was partitioned into 1 mL aliquots per vial, and the vials were transferred to a -80° C. freezer. After one day at -80° C., the cell vials were transferred to liquid nitrogen freezer for storage.
PBST solution was prepared by mixing 3600 mL of water, 400 mL of 10X PBS, and 4 mL of Tween 20. IFN-γ solution was reconstituted with 100 µL of water to obtain a 1 mg/mL solution, which was then diluted with 0.1 % BSA to provide a 100 ng/mL solution. The IFN-γ solution was stored at -20° C. LPS was reconstituted with 1 mL of PBS solution to obtain a 1 mg/mL stock solution, which was further diluted to 50 ng/mL with serum-free medium. The LPS solution was stored at 4° C.
The 96 well plates were then incubated at 37° C. under a humidified atmosphere of 5% CO2 for 24 h.
LPS induction: When IFN-γ treatment was completed, the supernatants were discarded by hand. 100 µL of a 1X solution of LPS in serum-free medium (50 ng/mL) was added. The plates were incubated in a 37° C. incubator under a humidified atmosphere of 5% CO2 for 4 h. Sample compounds were dissolved in DMSO and the compound solutions were dispensed to the wells using a Tecan D300e digital dispenser. The final concentration of DMSO for each well was 0.5%. The plates were then incubated at 37° C. under a humidified atmosphere of 5% CO2 for 1 h. 20 µL of a 6X solution of ATP was added (final concentration per well: 5 mM), and the plates incubated at 37° C. under a humidified atmosphere of 5% CO2 for 1 h. The supernatants were then collected and analyzed using an IL-Iβ detection kit. If needed, the test samples could be stored at -20° C. until analyzed.
Compound dilution: Compound solution source plates (20 µL of a 10 mM solution of each compound was delivered to the specified wells and stored in a nitrogen cabinet until tested.
Coat Elisa plate: The captured antibody (mAb Mt175) was diluted in PBS to a concentration of 2 µg/mL, and then used to coat the ELISA plate (SIGMA-P6366) overnight at 4° C.
The antibody coat was discarded and the plate was washed 4 times with PBST. The plate was blocked by adding 25 µL/well of blocking buffer (LiCor-927-40000) with 0.1% Tween 20, then incubated for 1 h at room temperature. The blocking buffer was then discarded and the plate was washed 4 times with PBST.
One hour before test sample addition, the sample plates were allowed to thaw at room temperature, centrifuged at 1000 rpm for 1 minute, and shaken for 30 seconds. 25 µL/well of the test samples were transferred to the ELISA plate, and the plate was incubated for 2 h at room temperature.
The test samples were discarded and the ELISA plate was washed 4 times with PBST. 15 µL/well of mAb7P10-biotin at 0.5 µg/mL (1:1000) in blocking buffer was then added to the ELISA plate and it was incubated for 1 h at room temperature.
The antibody was discarded and the ELISA plate was washed 4 times with PBST. Then 15 µL/well of streptavidin-HRP diluted 1:1000 in blocking buffer was added to the ELISA plate and it was allowed to incubate for 1 h at room temperature.

[2] = system: NLRP3 (IL-1β secretion from THP-1 cells); test: IL-1β secretion assay in 384-well plates, PMA differentiated THP-1 cells, LPS and nigericin stimulation; assay type: cell-based; details: Homo sapiens; THP-1 cells, PMA 5 ng/mL, LPS 25 ng/mL, nigericin, IL-1β ELISA, 384-well; read-out: Activity
Procedure: as §1, with “Cell culture medium employed contained RPMI 1640 medium (89%), FBS (10%), Pen/Strep (1%), and 2-mercaptoethanol (0.05 mM).” left out
PMA was dissolved in DMSO to make a stock solution at 5 mg/mL and stored in 10 µl aliquots at -20° C. for single use. PMA is added to normal growth medium. LPS was diluted with 1 mL of water solution to provide a 1 mg/mL stock solution and stored in 15 µl aliquots at -20° C. for single use. Nigericin is diluted in ice cold 100% ethanol to 5 mg/mL (6.7 mM) and stored in 75 µL aliquots at -20° C. for single use. […] The two control conditions used to qualify and normalize test compound dose-response curves were as follows: High Control = 25 ng/mL LPS, 5 µM Nigericin, 0.5% DMSO, Low Control = 25 ng/mL, LPS, 0.5% DMSO.
THP-1 cells were diluted to provide a suspension at a concentration of 1.0×10^6 cells/mL with the total volume of suspension required to enable the desired number of assay plates. The growth media was supplemented with PMA (5 ng/mL final concentration) and the cells were incubated at 37° C. under a humidified atmosphere of 5% CO2 for 40 h.
All media was carefully aspirated from each culture flask. The cells were washed carefully with 1x DPBS. The cells were then briefly digested with trypsin LE for 5 minutes at 23° C. and immediately resuspended in cell growth media. After resuspension, the cells were centrifuged at 1000 rpm for 3 minutes and the supernatant was discarded. The cells were resuspended in DPBS and once again centrifuged at 1000 rpm for 5 minutes. The supernatant was discarded and the cell pellet was resuspended in serum-free media supplemented with LPS (25 ng/mL final concentration) to enable the distribution of 30 K THP-1 cells within 45 µL of media into each well of 384-well PDL-coated plates. The 384-well plates were then incubated at 37° C. under a humidified atmosphere of 5% CO2 for 2 h. Following this period, test compounds were dispensed by Tecan across the desired concentration range with all wells normalized to a final 0.5 % DMSO concentration. The plates were then incubated at 37° C. under a humidified atmosphere of 5% CO2 for 1 h. Following this period, 5 µL of the […] nigericin stock solution was added to each of the appropriate wells and plates were centrifuged at 1000 rpm for 30 seconds. The plates were the immediately reintroduced to the incubator at 37° C. under a humidified atmosphere of 5% CO2 for 2 h. After this time, 35 µL/well of supernatant was collected and transferred into v-bottom plate and centrifuged at 1000 rpm for 1 minute. These supernatant aliquots were analyzed using an IL-Iβ detection kit as described below. If needed, the test samples could be snap frozen and stored at -80° C. until analyzed.
To prepare each ELISA plate, capture antibody (mAb Mt175) was diluted with PBS to a final concentration of 2 µg/mL and then 20 µL of this solution was added to each well of the ELISA plate. Each plate was allowed to incubate overnight at 4° C. The next day, the capture antibody solution was removed and discarded. […] Each ELISA plate was then allowed to incubate for 1 hour at 23° C. After this time, the blocking buffer was removed and discarded. Each ELISA plate was washed 4 times with PBST. During this time, the v-bottomed plates containing the supernatant aliquots from the assay run were centrifuged at 300 g for 5 minutes before transferring 15 µL/well of the supernatant sample to each ELISA plate. […]

Row | SMILES | IC50 [1] [µM] | IC50 [2] [µM]
1 | CC(C)c1nn(CC(=O)N[C@H]2C[C@@](C)(O)C2)c(=O)cc1-c1ccccc1F [Example 11, 2-(4-(2-fluorophenyl)-3-isopropyl-6-oxopyridazin-1(6H)-yl)-N-(cis-3-hydroxy-3-methylcyclobutyl)acetamide] | < 10 | 2.88
2 | CC(C)c1nn(CC(=O)N[C@H]2C[C@@](C)(O)C2)c(=O)cc1-c1cccc(F)c1 [Example 12, 2-(4-(3-fluorophenyl)-3-isopropyl-6-oxopyridazin-1(6H)-yl)-N-(cis-3-hydroxy-3-methylcyclobutyl)acetamide] | < 10 | 1.66
3 | CC(C)c1nn(CC(=O)N[C@H]2C[C@@](C)(O)C2)c(=O)cc1-c1cccc(C(F)(F)F)c1 [Example 13, N-(cis-3-hydroxy-3-methylcyclobutyl)-2-(3-isopropyl-6-oxo-4-(3-(trifluoromethyl)pheny 1)pyridazin-1(6H)-yl)acetamide] | < 10 | 21.8
4 | CC(C)c1nn(CC(=O)N[C@H]2C[C@@](C)(O)C2)c(=O)cc1-c1cccc(Br)c1 [Example 14, 2-(4-(3-bromophenyl)-3-isopropyl-6-oxopyridazin-1(6H)-yl)-N-(cis-3-hydroxy-3-methylcyclobutyl)acetamide] | < 10 | 1.49
5 | CC(C)c1nn(CC(=O)N[C@H]2C[C@@](C)(O)C2)c(=O)cc1-c1cccc(Cl)c1Cl [Example 15, 2-(4-(2,3-dichlorophenyl)-3-isopropyl-6-oxopyridazin-1(6H)-yl)-N-(cis-3-hydroxy-3-methylcyclobutyl)acet amide] | < 10 | 3.51
6 | CC(C)c1nn(CC(=O)N[C@H]2C[C@@](C)(O)C2)c(=O)cc1-c1cc(Cl)ccc1Cl [Example 16, 2-(4-(2,5-dichlorophenyl)-3-isopropyl-6-oxopyridazin-1(6H)-yl)-N-(cis-3-hydroxy-3-methylcyclobutyl)acet amide] | < 10 | 1.15
7 | CC(C)c1nn(CC(=O)N[C@H]2C[C@@](C)(O)C2)c(=O)cc1-c1ccccn1 [Example 17] | < 10 | 19.5
8 | C[C@]1(O)C[C@@H](NC(=O)Cn2nc(Cl)c(-c3ccccc3)cc2=O)C1 [Example 18, 2-(3-chloro-6-oxo-4-phenylpyridazin-1(6H)-yl)-N-(cis-3-hydroxy-3-methylcyclobutyl)acetamide] | > 15 | 50
9 | COc1nn(CC(=O)N[C@H]2C[C@@](C)(O)C2)c(=O)cc1-c1ccccc1 [Example 19] | < 10 | 21.7
10 | CC(C)c1nn(CC(=O)N[C@H]2C[C@@](C)(O)C2)c(=O)nc1-c1ccccc1 [Example 20, N-(cis-3-hydroxy-3-methylcyclobutyl)-2-(6-isopropyl-3-oxo-5-phenyl-1,2,4-triazin-2(3H)-yl)acetamide] | < 10 | 24

From patent US20230348437A1, “COMPOUNDS, COMPOSITIONS AND METHODS” (Denali Therapeutics Inc., priority 2020, published 2023)
